ChEMBL document CHEMBL4371083, “Synthesis, biological evaluation and 3D-QSAR studies of 1,2,4-triazole-5-substituted carboxylic acid bioisosteres as uric acid transporter 1 (URAT1) inhibitors for the treatment of hyperuricemia associated with gout” (Bioorg Med Chem Lett, 2019)

Each compound was assayed against T1, Solute carrier family 22 member 12 (Homo sapiens, UniProt Q96S37) (assay: Inhibition of human URAT1 expressed in HEK293 cells assessed as reduction in [8-14C]uric acid uptake).
T1 sequence (Q96S37 whole entry): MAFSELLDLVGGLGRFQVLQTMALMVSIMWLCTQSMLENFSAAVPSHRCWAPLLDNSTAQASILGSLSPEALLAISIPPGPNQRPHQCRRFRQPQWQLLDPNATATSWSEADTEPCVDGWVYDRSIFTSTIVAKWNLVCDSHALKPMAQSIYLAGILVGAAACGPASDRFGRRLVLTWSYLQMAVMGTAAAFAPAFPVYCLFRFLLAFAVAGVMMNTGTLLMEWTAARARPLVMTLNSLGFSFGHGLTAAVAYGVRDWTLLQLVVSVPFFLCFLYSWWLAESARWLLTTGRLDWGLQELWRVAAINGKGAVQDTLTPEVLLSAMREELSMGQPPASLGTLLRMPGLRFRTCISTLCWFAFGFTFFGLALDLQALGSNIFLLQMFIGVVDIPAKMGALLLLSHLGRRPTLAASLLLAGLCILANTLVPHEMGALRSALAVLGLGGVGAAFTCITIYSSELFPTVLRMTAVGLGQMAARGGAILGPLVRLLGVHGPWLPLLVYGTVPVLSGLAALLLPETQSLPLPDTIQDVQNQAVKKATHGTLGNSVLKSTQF
Assay type: cell-based
Compound NS(=O)(=O)CSc1nnc(Br)n1Cc1ccc(Br)c2ccccc12 has an IC50 of 365 µM. O=S(=O)(CSc1nnc(Br)n1Cc1ccc(Br)c2ccccc12)Nc1ccccc1 was tested, and the IC50 was 15.8 µM. With O=S(=O)(CSc1nnc(Br)n1Cc1ccc(Br)c2ccccc12)Nc1cncc(C(F)(F)F)c1 the IC50 was 6.38 µM. In the case of O=S(=O)(CSc1nnc(Br)n1Cc1ccc(Br)c2ccccc12)Nc1cc(Cl)cnc1Cl, the IC50 is reported as 2.79 µM. O=S(=O)(CSc1nnc(Br)n1Cc1ccc(Br)c2ccccc12)Nc1cccnc1 showed an IC50 of 0.032 µM. With O=S(=O)(CSc1nnc(Br)n1Cc1ccc(Br)c2ccccc12)Nc1ccc(F)nc1 the IC50 was 1.55 µM. In the case of O=S(=O)(CSc1nnc(Br)n1Cc1ccc(Br)c2ccccc12)Nc1cnccc1I, the IC50 is reported as 10.6 µM. Compound Brc1ccc(Cn2c(Br)nnc2SCc2nnn[nH]2)c2ccccc12 has an IC50 of 3.24 µM. For O=S(=O)(CSc1nnc(Br)n1Cc1ccc(Br)c2ccccc12)Nc1ccc(Cl)nc1, the IC50 was 1.94 µM. Compound O=S(=O)(CSc1nnc(Br)n1Cc1ccc(Br)c2ccccc12)Nc1ccc(Cl)nc1Cl has an IC50 of 1.66 µM. For O=S(=O)(CSc1nnc(Br)n1Cc1ccc(Br)c2ccccc12)Nc1cccnc1Cl, the IC50 was 5.1 µM. For O=C(CSc1nnc(Br)n1Cc1ccc(Br)c2ccccc12)NO, the IC50 was 0.64 µM. Oc1c(Br)cc(CSc2nnc(Br)n2Cc2ccc(Br)c3ccccc23)cc1Br showed an IC50 of 119 µM. In the case of O=S(=O)(CSc1nnc(Br)n1Cc1ccc(Br)c2ccccc12)Nc1cccnc1Br, the IC50 is reported as 0.28 µM. Work on O=S(=O)(CSc1nnc(Br)n1Cc1ccc(Br)c2ccccc12)Nc1ccc(Br)nc1 yielded an IC50 of 2.2 µM. With O=S(=O)(CSc1nnc(Br)n1Cc1ccc(Br)c2ccccc12)Nc1ccc(C(F)(F)F)nc1 the IC50 was 10.2 µM. Compound O=S(=O)(CSc1nnc(Br)n1Cc1ccc(Br)c2ccccc12)Nc1ccc(Br)nc1Br has an IC50 of 5.41 µM. COc1ncccc1NS(=O)(=O)CSc1nnc(Br)n1Cc1ccc(Br)c2ccccc12 showed an IC50 of 4.05 µM. In the case of O=S(=O)(O)CSc1nnc(Br)n1Cc1ccc(Br)c2ccccc12, the IC50 is reported as 14.4 µM.
